From patent publication US6812252B2, “Acylsulfonamide derivatives” (Ajinomoto Co., Inc., priority 2000, dated 2004)

| SMILES | melting point [°C] |
| --- | --- |
| CCCCCC(=O)NS(=O)(=O)c1ccccc1NC(=O)c1ccc(C#Cc2cccc(C(F)(F)F)c2)cc1 [Example 1, 4-(3-Trifluoromethyl)phenylethynyl-N-(2-hexanoylaminosulfonylphenyl)benzamide] | 194 to 196 |
| CC(=O)CCCC(=O)NS(=O)(=O)c1ccccc1NC(=O)c1ccc(C#Cc2cccc(C(F)(F)F)c2)cc1 [Example 2, 4-(3-Trifluoromethyl)phenylethynyl-N-(2-(5-ketohexanoylamino)-sulfonylphenyl)benzamide] | 169 to 171 |
| CCCOCC(=O)NS(=O)(=O)c1ccccc1NC(=O)c1ccc(C#Cc2cccc(C(F)(F)F)c2)cc1 [Example 3, 4-(3-Trifluoromethyl)phenylethynyl-N-(2-(2-propyloxyacetylamino)sulfonylphenyl)benzamide] | 175 to 177 |
| CCCCCC(=O)NS(=O)(=O)c1ccccc1NC(=O)c1ccc(C#Cc2ccc(C(F)(F)F)cc2)cc1 [Example 4, 4-(4-Trifluoromethyl)phenylethynyl-N-(2-hexanoylaminosulfonylphenyl)benzamide] | 210 to 212 |
| CCCCCC(=O)NS(=O)(=O)c1ccccc1NC(=O)c1ccc(C#Cc2ccc(OC(F)(F)F)cc2)cc1 [Example 5, 4-(4-Trifluoromethoxy)phenylethynyl-N-(2-hexanoylaminosulfonylphenyl)benzamide] | 197 to 199 |
| CC(=O)CCCC(=O)NS(=O)(=O)c1ccccc1NC(=O)c1ccc(C#Cc2ccc(OC(F)(F)F)cc2)cc1 [Example 6, 4-(4-Trifluoromethoxy)phenylethynyl-N-(2-(5-ketohexanoylamino)-sulfonylphenyl)benzamide] | 204 to 205 |
| CCCCCC(=O)NS(=O)(=O)c1ccccc1NC(=O)c1ccc(C#Cc2ccc(F)cc2)cc1 [Example 7, 4-(4-Fluoro)phenylethynyl-N-(2-hexanoylaminosulfonylphenyl)benzamide] | 183 to 186 |
| CC(=O)CCCC(=O)NS(=O)(=O)c1ccccc1NC(=O)c1ccc(C#Cc2ccc(F)cc2)cc1 [Example 8, 4-(4-Fluoro)phenylethynyl-N-(2-(5-ketohexanoylamino)sulfonylphenyl)benzamide] | 179 to 181 |
| CCCCCC(=O)NS(=O)(=O)c1ccccc1NC(=O)c1ccc(C#Cc2cccc(F)c2)cc1 [Example 9, 4-(3-Fluoro)phenylethynyl-N-(2-hexanoylaminosulfonylphenyl)benzamide] | 183 to 186 |
